Reference: patent US20040138301A1, “Chemical uncouplers for the treatment of obesity” (priority 2002, published 2004)
Read-outs that look alike come from different tables or passages of the source.

Legend:
FSK-4 cells = assay: Assay (IV): Glucose utilisation in FSK-4 cells; type: cell-based; conditions: FSK-4 cells; for EC50: glucose utilisation, 24 hours incubation, read-out: FSK4 EC50; for Emax: maximal efficacy relative to FCCP, read-out: FSK4 Emax (% of FCCP)
Description: Assay (IV): Glucose Utilisation in FSK-4 Cells
The assay measures indirectly the activity of the respiratory chain in FSK-4 cells by using D-(6-^3H(N))-glucose. The ^3H-proton will first be released in the TCA cyclus and transported to the respiratory chain where it will be incorporated into water. The water is thereafter separated from the D-(6-^3H(N))-glucose by evaporation. Finally, the radioactivity in the water is determined using a Topcounter.
FSK-4 cells obtained from ATCC (Maryland, USA), are cultured in growth medium (McCoy's medium with the following addition 100 units/ml penicillin and streptomycin and 10% FCS (fetal calf serum)) at 37° C. and 5% CO2. All media are obtained by Gibco (Life Technologies, Maryland, USA) where not otherwise mentioned.
At day zero the cells are harvested using trypsin-EDTA and washed in assay medium (MEM medium with the following addition 1× non-essential amino acids (M7145, 2 mM glutamin, 100 units/ml pencillin and streptomycin, 0.0075% sodium bicarbonate, 1 mM sodium pyrovate and 2% horse serum) using centrifugation. The cells are plated into single StripPlates wells (Corning B.V.Life Sciences, The Netherlands) that are placed into 24-well plates (Corning B.V.Life Sciences, The Netherlands) with a concentration of 1,5×10^4 cells/100 μl assay medium/well. The cells are then incubated at 37° C. and 5% CO2 overnight.
(§1) The next day the compounds to be tested are diluted to different concentrations in DMSO (Sigma, Missouri, USA) to 100 times final concentration. They are then diluted to a final concentration in assay medium containing 10 μCi/ml D-(6-^3H(N))-glucose (PerkinElmer Life Sciences Inc., Boston, USA). The medium is removed from the cells and 200 μl of the compound dilutions are added in duplicates. The cells are then incubated for another 24 hours at 37° C. and 5% CO2. Finally the cells are lysed by adding 50 μl 10% TCA (tri-chloroacetatic acid). 300 μl of sterile water is then added to the 24-wells that surrounds the StripPlate wells. The plate is sealed with Top-seal-tape (Packard, PerkinElmer Life Sciences Inc., Boston, USA) and the plate is incubated in a heating cupboard at 50° C. to equilibrium the radioactive water formed in the respiratory chain into the water in the 24-well plate by evaporate. The plates incubate for 8 hours where the heating cupboard is turned off. The top seal is removed when the samples have reached room temperature. One ml scintillation liquid (Packard Microscient, PerkinElmer Life Sciences Inc., Boston, USA) is added to all the samples and the radioactivity is determined using a Topcounter (Packard, PerkinElmer Life Sciences Inc., Boston, USA). Non-specific activity is determined by evaporating 200 μl of the dilution medium containing the D-(6-^3H(N))-glucose into 300 μl sterile water, and total radioactivity is determined by counting 5 μl assay medium with 10 μCi/ml D-(6-^3H(N))-glucose.
All calculations are done using GraphPad Prism 3.0 (GraphPad software, Inc.) From concentration-response curves the half maximal concentration (EC50) and maximal efficacy (Emax) are calculated using equation 1.
Y=Bottom+(Top−Bottom)/(1+10^((LogEc50-X)*slope))
(§2) X is the logarithm of the molar concentration of the test compound.
Y is the degree of stimulation caused by the compound measured as percentage of the basal stimulation.
The calculated EC50 value is then used to determine the concentrations used in a study where the Hill slope is calculated.
From the double logarithmic plot of the increase in glucose utilisation and the compound concentration the Hill slope is calculated accordingly to equation 2.
It is presumed, that the maximal increase in the glucose utilisation (as measured in the FSK-4 glucose utilisation assay) is limited by the capacity of the metabolism.

HEP-G2 cells = assay: cells; conditions: for HEP-G2 Tox: human, 3 h
Description: Assay (I): Glucose utilisation in a human hepatocytes cell line (HEP-G2 cells)
The assay measures indirectly the activity of the respiratory chain in HEP-G2 cells by using D-(3-^3H(N))-glucose. The ^3H-proton will first be released during the metabolism of glucose where it will be incorporated into water. The water is thereafter separated from the D-(3-^3H(N))-glucose by evaporation. Finally, the radioactivity in the water is determined using a Topcounter.
HEP-G2 cells obtained from ATCC (Maryland, USA), are cultured in assay medium (MEM medium) with the following addition 1× non-essential amino acids (M7145, 2 mM glutamine, 100 units/ml penicillin and streptomycin, 0.0075% sodium bicarbonate, 1 mM sodium pyrovate and 0.5% BSA (Bovin Serum Albumin, Sigma Missouri, USA)) at 37° C. and 5% CO2. All media are obtained by Gibco (Life Technologies, Maryland, USA) where not otherwise mentioned.
At day zero the cells are harvested using trypsin-EDTA and washed in assay medium using centrifugation. […] The cells are then incubated at 37° C. and 5% CO2 overnight.
as §1, with “diluted” for “diluted to different concentrations”, “μCi/ml D-(3-^3H(N))-glucose” for “μCi/ml D-(6-^3H(N))-glucose”, “another 3” for “another 24”, “TCA (trichloroacetic” for “TCA (tri-chloroacetatic”, “the D-(3-^3H(N))-glucose” for “the D-(6-^3H(N))-glucose”, “μCi/ml D-(3-^3H(N))-glucose.” for “μCi/ml D-(6-^3H(N))-glucose.”
The cpm (counts per minute) representing the non-specific radioactivity in the D-(3-^3H(N))-glucose is subtracted from all incubated values. Then mean basal value (samples without any compound added) is subtracted from the values of all stimulated samples (samples added different concentrations of the different test compounds). All these calculations are done using GraphPad Prism 3.0 (GraphPad software, Inc.). The maximal stimulation caused by the test compounds is calculated in percentage of maximal stimulation caused by either DNP or FCCP.
When calculating the concentration-response curve the maximal glucose utilisation stimulated by FCCP or DNP (subtracted non-specific and basal values) is converted to 100% and all the other values are expressed in percentage of this value. Using these percentage values and the compound concentration a concentration-response curve is calculated using sigmoidal dose-response (variable slope) equation (all the calculations are done by GraphPad Prism 3.0 (GraphPad software, Inc.));
Y=Bottom+(Top−Bottom)/(1+10^((LogEC50-X)*slope))
as §2
Y is the degree of stimulation caused by the compound measured as a percentage of the maximal stimulation achieved by use of FCCP or DNP.
The results achieved with these concentrations are used to determine the slope in this area using the following equation: […]

[1] = Homo sapiens, HepG2, 3 h, read-out: HEP-G2 EC50, HEP-G2 cells, glucose utilisation, 3 hours incubation
[2] = Homo sapiens, HepG2, read-out: HEP-G2 Emax (% of FCCP), HEP-G2 cells, maximal stimulation relative to FCCP
[3] = Homo sapiens, HepG2, read-out: HEP-G2 Emax (μM), HEP-G2 cells, concentration at which Emax is achieved (CEmax)

Structure (SMILES)	EC50 (FSK-4 cells) [µM]	Emax (FSK-4 cells) [%]	EC50 (HEP-G2 cells; [1]) [µM]	Emax (HEP-G2 cells; [2]) [%]	EC (Emax) (HEP-G2 cells; [3]) [µM]	HEP-G2 Tox (HEP-G2 cells)	EC50 (HEP-G2 cells; Homo sapiens, HepG2, 3 h, read-out: HEP-G2 EC50) [µM]	Emax (HEP-G2 cells; Homo sapiens, HepG2, read-out: HEP-G2 Emax (% of FCCP)) [%]	EC (Emax) (HEP-G2 cells; Homo sapiens, HepG2, read-out: HEP-G2 Emax (μM)) [µM]	EC50 (HEP-G2 cells; read-out: HEP-G2 EC50, HEP-G2 cells, glucose utilisation, 3 hours incubation) [µM]
Cc1c(Cl)cc(C(C)(C)C)c(O)c1C(=O)Nc1ccc([N+](=O)[O-])cc1Cl [Example 5, 3-Tert-Butyl-5-Chloro-N-(2-Chloro-4-Nitrophenyl)-2-Hydroxy-6-Methyl-Benzamide]	0.1	100	0.06	95	0.3					
Cc1ccc(C(C)(C)C)c(O)c1C(=O)Nc1ccc([N+](=O)[O-])cc1Cl [Example 10]	0.3	80	0.37	100	3					
CC(C)(C)c1cc(C[P+](c2ccccc2)(c2ccccc2)c2ccccc2)cc(C(C)(C)C)c1O [Example 11, (3,5-Di-Tert-Butyl-4-Hydroxybenzyl)Triphenylphosphonium Bromide]	0.3	90	0.7	75	3	Tox 0.03 mM				
CC(C)(C)c1cc(C[P+](C2CCCCC2)(C2CCCCC2)C2CCCCC2)cc(C(C)(C)C)c1O [Example 12, (3,5-Di-Tert-Butyl-4-Hydroxybenzyl)Tricyclohexylphosphonium Bromide]	0.3	85	1.2	70	10	Tox 0.03 mM				
CCCC[P+](CCCC)(CCCC)Cc1cc(C(C)(C)C)c(O)c(C(C)(C)C)c1.[Br-] [Example 13, (3,5-Di-Tert-Butyl-4-Hydroxybenzyl)Tributylphosphonium Bromide]	1	85	2.9	70	10	Tox 0.03 mM				
CCCCCCCC[P+](CCCCCCCC)(CCCCCCCC)Cc1cc(C(C)(C)C)c(O)c(C(C)(C)C)c1.[Br-] [Example 14, (3,5-Di-Tert-Butyl-4-Hydroxybenzyl)Trioctylphosphonium Bromide]	0.2	100	1.1	100	10	Tox 0.01 mM				
CCOC(=O)/C(C#N)=C/c1cc(C(C)(C)C)c(O)c(C(C)(C)C)c1 [Example 15, 2-Cyano-3-(3,5-Di-Tert-Butyl-4-Hydroxyphenyl)-Acrylic Acid Ethyl Ester]	2	65	0.7	100	3					
CCOC(=O)C(=Cc1cc(C(C)(C)C)c(O)c(C(C)(C)C)c1)C(=O)OCC [Example 16, 2-(3,5-Di-Tert-Butyl-4-Hydroxy-Benzylidene)-Malonic Acid Diethyl Ester]	30	45	11	100	100					
CC(C)(C)c1cc(C=C2C(=O)c3ccccc3C2=O)cc(C(C)(C)C)c1O [Example 18, 2-(3,5-Di-Tert-Butyl-4-Hydroxy-Benzylidene)-Indan-1,3-Dione]	6	100	0.6	80	3					
N#CC(C#N)=Cc1c(-c2ccc(Cl)cc2)[nH]c2ccccc12 [Example 19, 2-[[2-(4-Chlorophenyl)-1H-Indol-3-Yl]Methylene]Malononitrile]	1.1	55	7	100	100					
Clc1ccc(-c2cc3ccccc3[nH]2)cc1 [Example 20, 2-(4-Chlorophenyl)-Indole]	26	90	50	55	300					
Cc1c(Cl)cc(C(C)(C)C)c(O)c1C(=O)Nc1ccc(Cl)c(C(F)(F)F)c1 [Example 42, 3-Tert-Butyl-5-Chloro-N-(4-Chloro-3-Trifluoromethyl-Phenyl)-2-Hydroxy-6-Methyl-Benzamide]	1.1	75	3.3	89	10					
Cc1c(Cl)cc(C(C)(C)C)c(O)c1C(=O)Nc1ccc(C#N)c(C(F)(F)F)c1 [Example 43, 3-Tert-Butyl-5-Chloro-N-(4-Cyano-3-Trifluoromethyl-Phenyl)-2-Hydroxy-6-Methyl-Benzamide]	0.3	80					0.85	95	3	
O=C(Nc1ccc([N+](=O)[O-])cc1Cl)c1cccc(-c2ccccc2)c1O [Example 44, 2-Hydroxy-Biphenyl-3-Carboxylic Acid (2-Chloro-4-Nitro-Phenyl)-Amide]	3.6	90	2	94						1.4
